According to PubChem BioAssay AID179 (DTP/NCI, 2004):
“And” between values parts separate entries of the source, which are not always exact repeats. Equal entries are not always repeated. The source made the active and inactive calls.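 The calls were made as follows: active = compounds giving half or more protection of infected cells from virus-caused growth loss, again on retest; inactive = the rest.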 Where a SMILES comes first, the peptide text is derived from it.

Test system: CEM cells HIV-1 protection, formazan growth assay
Assay: NCI AIDS Antiviral Assay
Conditions: for IC50: measured here: growth of uninfected CEM cells
In short: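 Five concentrations of each compound were applied to infected and uninfected human CEM cells. Protection from HIV-1 was judged from growth measured with a soluble formazan assay.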

| SMILES | EC50 [µM] | IC50 | outcome |
| --- | --- | --- | --- |
| CCN(CC)c1ccc2c(-c3ccccc3C(=O)O)c3ccc(=[N+](CC)CC)cc-3oc2c1 | > 100 | 9.12 µM and 13.5 µM |  |
| CCOP(=O)(OCC)C1=NC=CC=CC1n1c(-c2ccccc2)nn(CC)c1=O (configuration not stated) | > 603 | 417 µM |  |
| CCCCCC=C(c1cc(Br)c(OC)c(C(=O)OC)c1)c1cc(Br)c(OC)c(C(=O)OC)c1 | 26.9 | 87.1 µM |  |
| COc1ccc(/C=C2\N=C(c3ccccc3)N(Nc3nnc(NN4C(=O)/C(=C/c5ccc(OC)cc5)N=C4c4ccccc4)c4ccccc34)C2=O)cc1 |  |  | inactive |
| CC(C)(C)[Si](C)(C)OCC1OC(n2ccc(=O)[nH]c2=O)C(C/C=[N+](/[O-])CC2OC(n3ccc(=O)[nH]c3=O)C(O[Si](C)(C)C(C)(C)C)C2O[Si](C)(C)C(C)(C)C)C1O[Si](C)(C)C(C)(C)C (configuration not stated) | > 100 | 89.1 µM |  |
| C=CC(=O)NC(O)(C(=O)OCC)C(F)(F)F (configuration not stated) | > 200 | > 200 µM |  |
| CC(CCC#N)(CCC#N)C(=O)CC(O)(C(F)(F)F)C(F)(F)F | > 200 | 2.34 µM |  |
| CC(C)CC1C(=O)NCCC(NC(=O)C(Cc2ccc(OC(C)(C)C)cc2)NC(=O)OC(C)(C)C)C(=O)NC(Cc2ccccc2)C(=O)NC(Cc2ccccc2)NC1=O (configuration not stated) | > 63.1 | 7.24 µM |  |
| COC(=O)C(C([CH-][N+](=O)[O-])c1ccccc1)[P+](c1ccccc1)(c1ccccc1)c1ccccc1 (configuration not stated) | > 200 | 10.7 µM |  |
| O=C1CC(c2ccc(Cl)cc2)NC(=O)N1CCN1CCCC1 (configuration not stated) | > 200 | > 200 µM |  |
| CC1=CSC2=NCCN12 | > 200 | > 200 µM |  |
| Cc1ccc(/C([O-])=C(\C(=S)Nc2cccc(C(F)(F)F)c2)[n+]2ccccc2)cc1 | > 200 | 89.1 µM |  |
| CCc1ccc(Cc2ccc(CC)c(NC(=O)C(=O)Cc3nc4ccccc4nc3C)c2CC)c(CC)c1NC(=O)C(=O)Cc1nc2ccccc2nc1C | > 13.5 | > 13.5 µM |  |
| CCOC(=O)c1c(SC(=O)c2ccc(OC)cc2)n(-c2ccccc2)c(=S)n(-c2ccccc2)c1=O | > 200 | 28.2 µM |  |
| CNC(=O)c1n[nH][nH]c1=O | > 200 | > 200 µM |  |
| O=Cc1ccc(-c2cccs2)s1 |  |  | inactive |
| O=C(O)CCCC[n+]1ccccc1 | > 200 | > 200 µM |  |
| Cc1nn2c(nc1=O)sc1ccc3ccccc3c12 | > 83.2 | > 83.2 µM |  |
| COc1cc(OC)c(/C=N/N=C(\N)NO)c(OC)c1 | > 200 | > 200 µM |  |
| Cc1ccc(S(=O)(=O)OC(F)(F)C(F)(F)F)cc1 | > 234 | > 234 µM |  |
| CC(C)(C)c1cc2c(c(C(C)(C)C)c1O)CC(=O)O2 | > 200 | 41.7 µM |  |

| SMILES | EC50 [µM] | IC50 | outcome |
| --- | --- | --- | --- |
| O=c1[nH]nc(Cc2ccccc2)n1/N=C/c1ccccc1Cl | > 200 | > 200 µM |  |
| O=C1CCC(=O)N2CCCCN12 | > 407 | > 407 µM |  |
| O=C(O)c1ccc2[nH]c(=O)oc2c1 | > 200 | > 200 µM |  |
| COc1ccc2c(c1)C13CCCC(C)(C(=O)NC1)C3CC2 (configuration not stated) | > 200 | > 200 µM |  |
| CC(C)CC(NC(=O)C(CC(=O)O)NC(=O)C(CO)NC(=O)C(CCCCN)NC(=O)C1CCCN1C(=O)C(CC(C)C)NC(=O)C(CO)NC(=O)CNC(=O)C(N)CCC(=O)O)C(=O)NC(CCCN=C(N)N)C(=O)O (configuration not stated) (H-EGSLPKSDLR-OH; configuration not given here) | > 56.2 | > 56.2 µM |  |
| CCc1cccc(C(C)C)c1NC(=O)CC1Sc2ccccc2NC1=O (configuration not stated) | > 97.7 | 52.5 µM |  |
| CC(NC(=O)C(N)CC(=O)O)NC(=O)N1CCCC1 (configuration not stated) | > 200 | > 200 µM |  |
| C1CCC(CSSCC2(N3CCCC3)CCCCC2)(N2CCCC2)CC1 | > 200 | > 100 µM |  |
| COc1cc2c(c(OC)c1OC)CCC1C(=O)NN=C21 (configuration not stated) | > 912 | 102 µM |  |
| COc1cc2c3c(c1)C(O)CC[N+]3(C)CCC2 (configuration not stated) | > 200 | > 200 µM |  |
| CC(=O)Nc1ccc(NNc2cc(=O)n(C)c(=O)[nH]2)cc1 | > 200 | 2.4 µM |  |
| C=C1c2nc3ccccc3n2C=C(c2ccccc2)N1c1ccc(C)cc1 | > 200 | 28.2 µM |  |
| CN(C)CCNc1ccc2c(=O)n(CCN(C)C)c(=O)n3c4ccccc4c(=O)c1c23 | > 0.1 | 0.00933 µM |  |
| CCOC(=O)c1cn(C)c2c1C(=O)C(C(=O)OCC)CC(=O)N2 (configuration not stated) | > 288 | 178 µM |  |
| c1cc(-c2ccsc2-c2ccsc2)cs1 | > 200 | 52.5 µM |  |
| Cc1[nH]c2ccccc2c1C1Cc2ccccc2N1C(=O)/C=C\C(=O)O (configuration not stated) | > 724 | 41.7 µM |  |
| COC(=O)c1ccc(Nc2nc3nc[nH]c3c(=O)[nH]2)cc1 | > 200 | 42.7 µM |  |
| Fc1c(F)c(F)c2c(c1F)CSc1nc3ccccc3n1-2 | > 200 | > 200 µM |  |
| C=CCN1C2Cc3cc(OC)c(OC)cc3C1Cc1cc(OC)c(OC)cc12 | > 603 | 135 µM |  |
| COC1=C(OC)C(=O)C(C/C=C(\C)CC/C=C(\C)CC/C=C(\C)CC/C=C(\C)CC/C=C(\C)CC/C=C(\C)CC/C=C(\C)CC/C=C(\C)CC/C=C(\C)CCC=C(C)C)=C(C)C1=O | > 110 | > 110 µM |  |
| O=C(O)C12C3C4C1C1C2C3C41I (configuration not stated) | > 479 | > 479 µM |  |
